Experimental data reported in patent US20070072831A1, “Integrase inhibitor compounds” (GILEAD SCIENCES, INC., priority 2005, published 2007).

What was measured:
HIV-IIIb = test: Antiviral assay in MT-4 cells infected with HIV-IIIb; format: cell-based; details: MT4, 120 h; MT-4 cells, HIV-IIIb, 5 days; read-out: EC50 Range MT-4
Procedure: See: Wolfe, etal J. Virol.
Antiviral Assays in MT2 and MT4 Cells
For the antiviral assay utilizing MT-2 cells, 50 μl of 2× test concentration of 5-fold serially diluted compound in culture medium with 10% FBS was added to each well of a 96-well plate (9 concentrations) in triplicate. MT-2 cells were infected with HIV-IIIb at a multiplicity of infection (m.o.i) of 0.01 for 3 hours. Fifty microliters of infected cell suspension in culture medium with 10% FBS (˜1.5×10^4 cells) was then added to each well containing 50 μl of diluted compound. The plates were then incubated at 37° C. for 5 days. For the antiviral assay utilizing MT-4 cells, 20 μl of 2× test concentration of 5-fold serially diluted compound in culture medium with 10% FBS was added to each well of a 384-well plate (7 concentrations) in triplicate. MT-4 cells were next mixed with HIV-IIIb at an m.o.i. of 0.1 and 20 μl of virus/cell mixture (˜2000 cells) was immediately added to each well containing 20 μl of diluted compound. The plates were then incubated at 37° C. for 5 days. After 5 days of incubation, 100 μl of CellTiter-Glo™ Reagent (catalog # G7571, Promega Biosciences, Inc., Madison, Wis.) was added to each well containing MT-2 cells and 40 μl to each well containing MT-4 cells. Cell lysis was carried out by incubating at room temperature for 10 min and then chemiluminescence was read.

HIV integrase = HIV integrase (Human immunodeficiency virus type 1 group M subtype B, UniProt P04585); test: biochemical

Row | SMILES | EC50 (HIV-IIIb) [nM] | IC50 (HIV integrase) [nM]
1 | CN(c1c2c(c(O)c3ncccc13)C(=O)N(Cc1cc(F)ccc1F)C2)S(C)(=O)=O [Compound 191, N-(7-(2,5-difluorobenzyl)-9-hydroxy-8-oxo-7,8-dihydro-6H-pyrrolo[3,4-g]quinolin-5-yl)-N-methylmethanesulfonamide] | < 60 | 60 to 1000
2 | CN(c1c2c(c(O)c3ncccc13)C(=O)N(Cc1ccc(F)c(F)c1)C2)S(C)(=O)=O [Compound 179, N-(7-(3,4-difluorobenzyl)-9-hydroxy-8-oxo-7,8-dihydro-6H-pyrrolo[3,4-g]quinolin-5-yl)-N-methylmethanesulfonamide] | < 60 | < 60
3 | CCOC(=O)N(C)c1c2c(c(O)c3ncccc13)C(=O)N(Cc1ccc(F)cc1)C2 [Compound 112, ethyl 7-(4-fluorobenzyl)-9-(hydroxy)-8-oxo-7,8-dihydro-6H-pyrrolo[3,4-g]quinolin-5-yl(methyl)carbamate] | < 60 | < 60
4 | CN(c1c2c(c(O)c3ncccc13)C(=O)N(Cc1c(F)ccc(Cl)c1F)C2)S(C)(=O)=O [Compound 185, N-(7-(3-chloro-2,6-difluorobenzyl)-9-hydroxy-8-oxo-7,8-dihydro-6H-pyrrolo[3,4-g]quinolin-5-yl)-N-methylmethanesulfonamide] | < 60 | 60 to 1000
5 | CN(c1c2c(c(O)c3ncccc13)C(=O)N(Cc1ccc(F)cc1)C2(C)C)S(C)(=O)=O [Compound 71, N-(7-(4-fluorobenzyl)-9-hydroxy-6,6-dimethyl-8-oxo-7,8-dihydro-6H-pyrrolo[3,4-g]quinolin-5-yl)-N-methylmethanesulfonamide] | < 60 | 60 to 1000
6 | CN(c1c2c(c(O)c3ncccc13)C(=O)N(Cc1cc(Cl)cc(Cl)c1)C2)S(C)(=O)=O [Compound 193, N-(7-(3,5-dichlorobenzyl)-9-hydroxy-8-oxo-7,8-dihydro-6H-pyrrolo[3,4-g]quinolin-5-yl)-N-methylmethanesulfonamide] | < 60 | 60 to 1000
7 | CN(c1c2c(c(O)c3ncccc13)C(=O)N(Cc1ccc(F)cc1)C2=O)S(C)(=O)=O [Compound 152, N-(7-(4-fluorobenzyl)-9-hydroxy-6,8-dioxo-7,8-dihydro-6H-pyrrolo[3,4-g]quinolin-5-yl)-N-methylmethanesulfonamide] | > 1000 | < 60
8 | CCC(CC)OC(=O)OCOc1c2c(c(N(C)S(C)(=O)=O)c3cccnc13)CN(Cc1ccc(F)cc1)C2=O [Compound 32, (7-(4-fluorobenzyl)-5-(N-methylmethan-5-ylsulfonamido)-8-oxo-7,8-dihydro-6H-pyrrolo[3,4-g]quinolin-9-yloxy)methyl pentan-3-yl carbonate] | 60 to 1000 | > 1000
9 | CN(c1c2c(c(O)c3ncccc13)C(=O)N(Cc1ccncc1)C2)S(C)(=O)=O [Compound 92, N-(9-hydroxy-8-oxo-7-(pyridin-4-ylmethyl)-7,8-dihydro-6H-pyrrolo[3,4-g]quinolin-5-yl)-N-methylmethanesulfonamide] | > 1000 | > 1000
10 | CN(c1c2c(c(O)c3ncccc13)C(=O)N(Cc1cc(Cl)c(F)cc1F)C2)S(C)(=O)=O [Compound 204, N-(7-(5-chloro-2,4-difluorobenzyl)-9-hydroxy-8-oxo-7,8-dihydro-6H-pyrrolo[3,4-g]quinolin-5-yl)-N-methylmethanesulfonamide] | < 60 | < 60
11 | CN(c1c2c(c(O)c3ncccc13)C(=O)N(Cc1c(F)cc(F)cc1F)C2)S(C)(=O)=O [Compound 187, N-(7-(2,4,6-trifluorobenzyl)-9-hydroxy-8-oxo-7,8-dihydro-6H-pyrrolo[3,4-g]quinolin-5-yl)-N-methylmethanesulfonamide] | < 60 | 60 to 1000
12 | O=C1c2c(c(N3CCNC3=O)c3cccnc3c2O)CN1Cc1ccc(F)cc1 [Compound 221, 7-(4-fluorobenzyl)-9-hydroxy-5-(2-oxoimidazolidin-1-yl)-6,7-dihydropyrrolo[3,4-g]quinolin-8-one] | < 60 | < 60
13 | CN(c1c2c(c(O)c3ncccc13)C(=O)N(Cc1ccc(F)cc1)C2O)S(C)(=O)=O (single isomer, unassigned) [Compound 166, N-(7-(4-fluorobenzyl)-6,9-dihydroxy-8-oxo-7,8-dihydro-6H-pyrrolo[3,4-g]quinolin-5-yl)-N-methylmethanesulfonamide] | < 60 | < 60
14 | CN(c1c2c(c(O)c3ncccc13)C(=O)N(Cc1ccc(F)c(Cl)c1)C2)S(C)(=O)=O [Compound 181, N-(7-(3-chloro-4-fluorobenzyl)-9-hydroxy-8-oxo-7,8-dihydro-6H-pyrrolo[3,4-g]quinolin-5-yl)-N-methylmethanesulfonamide] | < 60 | < 60
15 | O=C1c2c(c(N3CCCNS3(=O)=O)c3cccnc3c2O)CN1Cc1ccc(F)cc1 [Compound 215] | < 60 | 60 to 1000
16 | CN(c1c2c(c(O)c3ncccc13)C(=O)N(Cc1ccc(F)cc1F)C2)S(C)(=O)=O [Compound 145, N-(7-(2,4-difluorobenzyl)-9-hydroxy-8-oxo-7,8-dihydro-6H-pyrrolo[3,4-g]quinolin-5-yl)-N-methylmethanesulfonamide] | < 60 | < 60
17 | CN(C(=O)N1CCOCC1)c1c2c(c(O)c3ncccc13)C(=O)N(Cc1ccc(F)cc1)C2 [Compound 173, N-(7-(4-fluorobenzyl)-9-hydroxy-8-oxo-7,8-dihydro-6H-pyrrolo[3,4-g]quinolin-5-yl)-N-methylmorpholine-4-carboxamide] | 60 to 1000 | 60 to 1000
18 | CN(c1c2c(c(O)c3ncccc13)C(=O)N(Cc1ccc(F)cc1)C2)S(=O)(=O)CC(F)(F)F [Compound 156, 2,2,2-trifluoro-N-(7-(4-fluorobenzyl)-9-hydroxy-8-oxo-7,8-dihydro-6H-pyrrolo[3,4-g]quinolin-5-yl)-N-methylethane-1-sulfonamide] | 60 to 1000 | < 60
19 | CN(c1c2c(c(O)c3ncccc13)C(=O)N(Cc1ccc(F)cc1)C2)S(N)(=O)=O [Compound 132, N-(7-(4-fluorobenzyl)-9-hydroxy-8-oxo-7,8-dihydro-6H-pyrrolo[3,4-g]quinolin-5-yl)-N-methylsulfamide] | < 60 | < 60
20 | CC(C)OC(=O)OCOc1c2c(c(N(C)S(C)(=O)=O)c3cccnc13)CN(Cc1ccc(F)cc1)C2=O [Compound 33, (7-(4-fluorobenzyl)-5-(N-methylmethan-5-ylsulfonamido)-8-oxo-7,8-dihydro-6H-pyrrolo[3,4-g]quinolin-9-yloxy)methyl isopropyl carbonate] | < 60 | > 1000
21 | CN(c1c2c(c(O)c3ncccc13)C(=O)N(Cc1ccccn1)C2)S(C)(=O)=O [Compound 94, N-(9-hydroxy-8-oxo-7-(pyridin-2-ylmethyl)-7,8-dihydro-6H-pyrrolo[3,4-g]quinolin-5-yl)-N-methylmethanesulfonamide] | < 60 | 60 to 1000
22 | CN(c1c2c(c(O)c3ncccc13)C(=O)N(Cc1ccc(F)cc1)C2)S(=O)(=O)c1ccccn1 [Compound 158, N-(7-(4-fluorobenzyl)-9-hydroxy-8-oxo-7,8-dihydro-6H-pyrrolo[3,4-g]quinolin-5-yl)-N-methylpyridine-2-sulfonamide] | < 60 | 60 to 1000
23 | C[C@@H]1c2c(c(O)c3ncccc3c2N(C)S(C)(=O)=O)C(=O)N1Cc1ccc(F)cc1 (single isomer, unassigned) [Compound 76] | < 60 | < 60
24 | CCN(c1c2c(c(O)c3ncccc13)C(=O)N(Cc1ccc(F)cc1)C2)S(C)(=O)=O [Compound 78, N-ethyl-N-(7-(4-fluorobenzyl)-9-hydroxy-8-oxo-7,8-dihydro-6H-pyrrolo[3,4]quinolin-5-yl)methanesulfonamide] | < 60 | < 60
25 | CN(Cc1ccccc1)S(=O)(=O)N(C)c1c2c(c(O)c3ncccc13)C(=O)N(Cc1ccc(F)cc1)C2 [Compound 135, N′-benzyl-N′-methyl-N-(7-(4-fluorobenzyl)-9-hydroxy-8-oxo-7,8-dihydro-6H-pyrrolo[3,4-g]quinolin-5-yl)-N-methylsulfamide] | 60 to 1000 | 60 to 1000
26 | CC1c2c(c(O)c3ncccc3c2N(C)S(C)(=O)=O)C(=O)N1Cc1ccc(F)cc1 (racemic) [Compound 74, N-(7-(4-fluorobenzyl)-9-hydroxy-6-(R and S)-methyl-8-oxo-7,8-dihydro-6H-pyrrolo[3,4-g]quinolin-5-yl)-N-methylmethanesulfonamide] | < 60 | < 60
27 | CCOC(=O)N(C)c1c2c(c(O)c3ncccc13)C(=O)N(Cc1ccc(F)cc1)C2C (centres unmarked) [Compound 114, ethyl 7-(4-fluorobenzyl)-9-hydroxy-6-methyl-8-oxo-7,8-dihydro-6H-pyrrolo[3,4-g]quinolin-5-yl(methyl)carbamate] | 60 to 1000 | 60 to 1000
28 | CN(C)CCS(=O)(=O)N(C)c1c2c(c(O)c3ncccc13)C(=O)N(Cc1ccc(F)cc1)C2 [Compound 60, N-(7-(4-fluorobenzyl)-9-hydroxy-8-oxo-7,8-dihydro-6H-pyrrolo[3,4-g]quinolin-5-yl)-N-methyl-2-dimethylaminoethane-1-sulfonamide] | < 60 | < 60
